Test results reported in ChEMBL document CHEMBL4359829, “Straightforward synthesis and biological evaluation as topoisomerase I inhibitors and antiproliferative agents of hybrid Chromeno[4,3-b][1,5]Naphthyridines and Chromeno[4,3-b][1,5]Naphthyridin-6-ones” (Eur J Med Chem, 2019).

How the values were obtained:
[1] = tested on: MRC5; assay: Cytotoxicity against human MRC5 cells incubated for 48 hrs by CCK8 assay; assay type: cell-based; conditions: MRC5, 48 h
[2] = target: T1, DNA topoisomerase 1 (Homo sapiens) (UniProt P11387); assay: Inhibition of recombinant human Top1 expressed in Saccharomyces cerevisiae null strain RS190 assessed as decrease in relaxation of supercoiled plasmid DNA at 100 uM using supercoiled plasmid DNA as substrate incubated for 1 min by red staining based DNA relaxation assay relative to camptothecin
T1 sequence (whole entry): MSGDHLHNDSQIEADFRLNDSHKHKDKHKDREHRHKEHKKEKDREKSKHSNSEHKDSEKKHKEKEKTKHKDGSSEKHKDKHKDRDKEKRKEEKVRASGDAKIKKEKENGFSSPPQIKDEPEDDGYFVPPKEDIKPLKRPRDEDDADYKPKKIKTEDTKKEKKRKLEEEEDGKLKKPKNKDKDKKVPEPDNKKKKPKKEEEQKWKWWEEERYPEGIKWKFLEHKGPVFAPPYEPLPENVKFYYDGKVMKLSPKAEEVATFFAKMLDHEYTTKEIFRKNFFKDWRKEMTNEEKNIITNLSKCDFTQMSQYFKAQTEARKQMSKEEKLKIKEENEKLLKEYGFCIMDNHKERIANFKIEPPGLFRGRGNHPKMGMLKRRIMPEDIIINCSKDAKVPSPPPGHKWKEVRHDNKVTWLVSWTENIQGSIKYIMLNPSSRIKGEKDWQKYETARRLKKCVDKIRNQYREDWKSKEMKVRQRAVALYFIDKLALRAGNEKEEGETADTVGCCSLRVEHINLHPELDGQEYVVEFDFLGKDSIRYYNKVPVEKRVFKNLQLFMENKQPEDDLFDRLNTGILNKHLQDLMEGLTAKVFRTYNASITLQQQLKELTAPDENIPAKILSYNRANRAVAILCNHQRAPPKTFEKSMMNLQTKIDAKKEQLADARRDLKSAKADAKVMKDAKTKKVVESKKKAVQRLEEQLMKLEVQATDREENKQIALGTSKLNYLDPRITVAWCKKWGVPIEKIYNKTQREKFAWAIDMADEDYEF

[3] = target: T1, DNA topoisomerase 1 (Homo sapiens); assay: Inhibition of recombinant human Top1 expressed in Saccharomyces cerevisiae null strain RS190 assessed as decrease in relaxation of supercoiled plasmid DNA at 100 uM using supercoiled plasmid DNA as substrate incubated for 3 min by red staining based DNA relaxation assay relative to camptothecin
[4] = target: T1, DNA topoisomerase 1 (Homo sapiens); assay: Inhibition of recombinant human Top1 expressed in Saccharomyces cerevisiae null strain RS190 assessed as decrease in relaxation of supercoiled plasmid DNA at 100 uM using supercoiled plasmid DNA as substrate incubated for 15 sec by red staining based DNA relaxation assay relative to camptothecin
[5] = tested on: A549; assay: Antiproliferative activity against human A549 cells incubated for 48 hrs by CCK8 assay; assay type: functional, cell-based; conditions: A549, 48 h
[6] = tested on: SK-OV-3; assay: Antiproliferative activity against human SKOV3 cells incubated for 48 hrs by CCK8 assay; assay type: functional, cell-based; conditions: SK-OV-3, 48 h

Row | Compound | IC50 [1] [µM] | inhibition [2] [%] | inhibition [3] [%] | inhibition [4] [%] | IC50 [5] [µM] | IC50 [6] [µM]
1 | COc1ccc2nc3c(c(-c4ccccc4)c2n1)COc1ccccc1-3 | > 50 | 16 | 15 | 86 | 11.7 | > 50
2 | O=c1oc2ccc(F)cc2c2nc3cccnc3c(-c3ccccc3)c12 | > 50 | 2 | 2 | 26 | > 50 | > 50
3 | Fc1ccc2c(c1)[C@H]1Nc3cccnc3[C@@H](c3ccccc3)[C@@H]1CO2 (relative stereo) | > 50 | 1 | 1 | 2 | 11.3 | > 50
4 | Fc1ccc(-c2c3c(nc4cccnc24)-c2ccccc2OC3)cc1F | > 50 | 6 | 6 | 84 | > 50 | > 50
5 | c1ccc(-c2c3c(nc4cccnc24)-c2ccccc2OC3)cc1 | > 50 | 14 | 2 | 30 | > 50 | > 50
6 | c1ccc([C@@H]2c3ncccc3N[C@@H]3c4ccccc4OC[C@@H]23)cc1 (relative stereo) | > 50 | 4 | 1 | 5 | 1.03 | 1.75
7 | Cc1ccc2c(c1)-c1nc3cccnc3c(-c3ccccc3)c1CO2 | > 50 | 2 | 2 | 2 | > 50 | > 50
8 | O=C1Oc2ccccc2[C@H]2Nc3ccc(Br)nc3[C@@H](c3ccccc3)[C@H]12 (relative stereo) | > 50 | 4 | 4 | 4 | > 50 | > 50
9 | O=C1Oc2ccc(F)cc2[C@H]2Nc3cccnc3[C@@H](c3ccccc3)[C@H]12 (relative stereo) | > 50 | 25 | 2 | 30 | > 50 | > 50
10 | COc1ccc2c(n1)[C@@H](c1ccccc1)[C@@H]1COc3ccccc3[C@H]1N2 (relative stereo) | > 50 | 26 | 12 | 81 | 5.43 | > 50
11 | COc1ccc(-c2c3c(nc4cccnc24)-c2ccccc2OC3)cc1 | > 50 | 30 | 29 | 29 | 17.9 | > 50
12 | O=C1Oc2ccccc2[C@H]2Nc3cccnc3[C@@H](c3ccccc3)[C@H]12 (relative stereo) | > 50 | 7 | 5 | 5 | 25.4 | > 50
13 | O=c1oc2ccccc2c2nc3ccc(Br)nc3c(-c3ccccc3)c12 | > 50 | 4 | 4 | 4 | 29 | > 50
14 | Brc1ccc2nc3c(c(-c4ccccc4)c2n1)COc1ccccc1-3 | > 50 | 4 | 4 | 4 | > 50 | > 50
15 | COc1ccc2c(n1)[C@@H](c1ccccc1)[C@@H]1C(=O)Oc3ccccc3[C@H]1N2 (relative stereo) | > 50 | 4 | 4 | 4 | > 50 | > 50
16 | COc1ccc2nc3c(c(-c4ccccc4)c2n1)c(=O)oc1ccccc13 | > 50 | 12 | 12 | 72 | > 50 | > 50
17 | O=c1oc2ccccc2c2nc3cccnc3c(-c3ccccc3)c12 | > 50 | 2 | 2 | 25 | 9.03 | > 50
18 | Fc1ccc2c(c1)-c1nc3cccnc3c(-c3ccccc3)c1CO2 | > 50 | 2 | 2 | 2 | > 50 | > 50
19 | Cc1ccc2c(c1)[C@H]1Nc3cccnc3[C@@H](c3ccccc3)[C@@H]1CO2 (relative stereo) | > 50 | 69 | 19 | 70 | 7.25 | 12.7
